According to US20250325676A1, “CAMPTOTHECIN PRODRUG AND PHARMACEUTICAL COMPOSITION THEREOF” (TIANJIN HEMAY ONCOLOGY PHARMACEUTICAL CO., LTD, priority 2022, published 2025):
Like-named read-outs stand apart in the source and are kept apart here.

Tests used:
NCI-N87 = test: In vitro inhibition of human tumor cells, NCI-N87, MTT method; assay type: cell-based
human colon cancer SW620 = conditions: 30 mg/kg i.v. qw × 2; SW620 model
Procedure: An allogeneic transplantation model of human colon cancer SW620 was established in nude mice subcutaneously using a tumor block inoculation method. When the tumor volume of the allogeneic transplantation was about 100 to 300 mm^3 and remained stable, the experimental animals were randomly divided into groups according to the size of the tumor volume (day 0) by using a remainder method. The tumor volume was measured 2 to 3 times a week. At the end of the dosage period, the experimental animals were sacrificed. The subcutaneous tumors were peeled and weighed. The anti-tumor activity of the drug against the model was evaluated based on tumor volume and tumor weight-related data.
(§6) The calculation formula of the tumor volume was: Volume=0.5×long diameter×short diameter×short diameter.
(§7) V0 was the resulting tumor volume measured at the time of dosing in groups (i.e., d0) and Vt was the tumor volume at each measurement.
TRTV was the average value of RTV of the subject, and CRTV was the average RTV of the model control group.
(§8) Wn: average body weight of each group of experimental animals on day n, and W0: average body weight of each group of experimental animals on day 0.

SW620 = test: In vitro inhibition of human tumor cells, SW620, SRB method; assay type: cell-based
Excerpt: (§1) The cells were allowed to adhere overnight.
(§2) Trichloroacetic acid was removed. […] Excess SRB was removed.
(§3) The DMSO concentration was 0.1%.

HCT116 = test: In vitro inhibition of human tumor cells, HCT116, MTT method; assay type: cell-based
Procedure: as §1
(§4) Adherent cells: Culture medium was aspirated and 100 μl/wells of basal culture (generally refers to medium without fetal bovine serum (FBS) and other additives) containing 0.5 mg/ml MTT were added. The cells were cultured for 3 hours. MTT-containing basal medium was aspirated and 100 μl/wells of DMSO were added to dissolve formazan.
(§5) Unstably adherent cells: Unstably adherent cells were directly added to the MTT solution to achieve the concentration of 0.5 mg/ml and cultured for 3 hours. The ternary solution in an equal volume to the system was added to the system to dissolve the formazan.
as §3

NCI-H460 = test: In vitro inhibition of human tumor cells, NCI-H460, MTT method; assay type: cell-based
Procedure: as §1, §4, §5, §3

LoVo = test: In vitro inhibition of human tumor cells, LoVo, SRB method; assay type: cell-based
Excerpt: as §1, §2, §3

BxPC-3 = test: In vitro inhibition of human tumor cells, BxPC-3, MTT method; assay type: cell-based
Procedure: as §1, §4, §5, §3

MDA-MB-468 = test: In vitro inhibition of human tumor cells, MDA-MB-468, SRB method
Procedure: 1.1.2 Cell culture method: Cells were cultured in complete medium, 37° C., 5% CO2, saturated humidity to log growth phase (adherent cells generally attended to complete fusion), and cells were collected for subsequent experiments (adherent cells were first digested with trypsin/ethylene diamine tetraacetic acid (EDTA) to remove adherent).
1.1.3 96-well cell culture plates (hereinafter referred to as 96-well plates) were inoculated with a certain number of cells (see Table 1 for details). The cells were allowed to adhere overnight. […] Finally, the total amount of cell protein in the assay wells was determined by the SRB method, or the cell viability was determined by the MTT method:
The culture medium was aspirated from the wells and the cells were fixed for 1 hour or more by adding 10% trichloroacetic acid. Trichloroacetic acid was removed. The resultant was washed with H2O and stained with 0.4% SRB for 15 to 30 minutes. Excess SRB was removed. The resultant was washed with 1% acetic acid. The protein-bound SRB was dissolved by adding 10 mM of 100 μl Tris (trishydroxymethylaminomethane). Tests were carried out at the wavelength of 570 nm.
1.1.4 dilution and addition of β-glucuronidase: 1 to 2 mg of β-glucuronidase was weighed and dissolved in PBS to give a 2 mg/ml of stock solution. […] 80 μl of enzyme working solution was added to the enzyme-containing assay wells. The amount of β-glucuronidase was 1 μg/wells. No enzyme-containing assay wells were added to the 80 μl of complete medium.
The assay wells were charged with 20 μl of 10× compound working solution. The final volume was 200 μl per well. The DMSO concentration was 0.1%.
1.1.6 Compound inhibition activity calculation: The test included a compound test group, a compound-free positive solvent control group (PC) and a compound-free negative solvent control group (NC). […] The average inhibition rate and the standard deviation (SD) were obtained from the repeated test wells. The average inhibition rate was plotted on the basis of the compound concentration as an abscissa and distributed in the form of logarithms. The curve was fitted to the Logistic 4 parameter equation. […] The test was generally repeated to obtain 3 valid results.

[1] = test system: human colon cancer HCT116; conditions: 30 mg/kg i.v. qw × 2; HCT116 large tumor after irinotecan
Excerpt: When the tumor volume was more than 600 mm^3 and stable growth was maintained, the experimental animals were randomly divided by the remainder method and administered according to the size of the tumor volume. […] The subcutaneous tumors were stripped and weighed.
T was the subject and C is the model control.
Tumor volume growth was observed on a regular basis after completion of dosing.

[2] = test system: human pancreatic cancer BxPC-3; conditions: 30 mg/kg i.v. qw × 2; BxPC-3 large tumors after irinotecan
Procedure: (§9) When the tumor volume of the allogeneic transplantation was about 100 to 300 mm^3 and remained stable, the experimental animals were randomly divided into groups according to the size of the tumor volume (day 0) by using a remainder method. The tumor volume was measured 2 to 3 times a week. At the end of the dosage period, the experimental animals were sacrificed. The subcutaneous tumors were peeled and weighed. The anti-tumor activity of the drug against the model was evaluated based on tumor volume and tumor weight-related data.
as §6, §7
(§10) T was the subject and C was the model control.
(§11) TRTV was the average RTV of the subject, and CRTV was the average RTV of the model control group.
as §8
(§12) In the large tumor efficacy test after the second grouping of the G5 group, since the number of samples in each group of G6.1 and G6.4 was less than three, the relevant data of the large tumor efficacy test were statistically analyzed among groups using the T-Test method.

[3] = test system: human pancreatic cancer BxPC-3; test: Growth of human pancreatic cancer BxPC-3 in allogeneic transplantation model; assay type: in vivo, nude mice; conditions: 25 mg/kg i.v. qw × 2; BxPC-3 model
Procedure: as §9, §6, §7, §10, §11, §8, §12

[4] = test system: human small cell lung cancer NCI-H446; conditions: 20 mg/kg i.v. qw × 2; NCI-H446 model
Procedure: An allogeneic transplantation model of human small cell lung cancer NCI-H446 was established in nude mice subcutaneously using a tumor block inoculation method. When the tumor volume of the allogeneic transplantation was about 100 to 300 mm^3 and remained stable, the experimental animals were randomly divided into groups according to the size of the tumor volume (day 0, i.e., d0) using a remainder method. The tumor volume was measured 2 to 3 times a week. At the end of the dosage period, the experimental animals were sacrificed. The subcutaneous tumors were peeled and weighed. The anti-tumor activity of the drug against the model was evaluated based on tumor volume and tumor weight-related data.
as §6, §7, §10, §11, §8

[5] = No βGU (direct effects of compound on cells)

“(2S,3S,4S,5R,6S)-6-(3-((1-(8-((4′-((E)-(8-amino-1-hydroxy-5,7-disulfonicnaphthalen-2-yl)diazenyl)-[1,1′-biphenyl]-4-yl)amino)-8-oxooctyl)-1H-1,2,3-triazol-4-yl)methoxy)-4-((((S)-4,11-diethyl-4-hydroxy-3,14-dioxo-3,4,12,14-tetrahydro-1H-pyrano[3′,4′: 6,7]indolazino[1,2-b]quinolin-9-yl)oxy)methyl)phenoxy)-3,4,5-trihydroxytetrahydro-2H-pyran-2-carboxylate trisodium [Example 47]” was tested, and the IC50 (NCI-N87; Adding βGU) was 62 nM, the IC50 (NCI-N87; No βGU) was 1480 nM and the “T/C (%)” value (human colon cancer SW620) was 3.5%. For the same substance, the “Tumor inhibition rate (%)” value (human colon cancer SW620) was 96.2%, the IC50 (SW620; Adding βGU) was 6.7 nM and the IC50 (SW620; No βGU) was 329 nM. It also gave an IC50 (HCT116; Adding βGU (β-glucuronidase)) of 12 nM, an IC50 (HCT116; [5]) of 183 nM and an IC50 (NCI-H460; Adding βGU) of 17 nM. For the same substance, the IC50 (NCI-H460; No βGU) was 350 nM, the IC50 (LoVo; Adding βGU) was 22 nM and the IC50 (LoVo; No βGU) was 310 nM. It also gave an IC50 (BxPC-3; Adding βGU) of 27 nM, an IC50 (BxPC-3; No βGU) of 698 nM and an IC50 (MDA-MB-468; Adding βGU) of 14 nM. It also gave an IC50 (MDA-MB-468; No βGU) of 172 nM.
“(2S,3S,4S,5R,6S)-6-(3-((1-(2-(2-((4′-(E)-(8-amino-1-hydroxy-5,7-disulfonicnaphthalen-2-yl)diazenyl)-3,3′-dimethyl-[1,1′-biphenyl]-4-yl)amino)-3-oxopropoxy)ethyl)-1H-1,2,3-triazol-4-yl)methoxy)-4-((((S)-4,11-diethyl-4-hydroxy-3,14-dioxy-3,4,12,14-tetrahydro-1H-pyrano[3′,4′:6,7]indolazino[1,2-b]quinolin-9-yl)oxy)methyl)phenoxy)-3,4,5-trihydroxytetrahydro-2H-pyran-2-carboxylate trisodium [Example 101]” was tested, and the IC50 (NCI-N87; Adding βGU) was 51 nM, the IC50 (NCI-N87; No βGU) was 1240 nM and the “Relative volume RTV (X ± S.D.)” value [1] was 0.90 ± 0.20. The “T/C (%)” value [1] was 24.2%, the “Tumor inhibition rate (%)” value [1] was 81.6% and the “Tumor weight (g, X ± S.D.)” value [1] was 0.501 ± 0.081 g. For the same substance, the IC50 (MDA-MB-468; Adding βGU) was 11 nM and the IC50 (MDA-MB-468; No βGU) was 372 nM.
In the case of “(2S,3S,4S,5R,6S)-6-(3-((1-(8-((4′-((E)-(8-amino-1-hydroxy-5,7-disulfonicnaphthalen-2-yl)diazenyl)-3,3′-dimethyl-[1,1′-biphenyl]-4-yl)amino)-8-oxooctyl)-1H-1,2,3-triazol-4-yl)methoxy)-4-((((S)-4,11-diethyl-4-hydroxy-3,14-dioxy-3,4,12,14-tetrahydro-1H-pyrano[3′,4′:6,7]indolizino[1,2-b]quinolin-9-yl)oxy)methyl)phenoxy)-3,4,5-trihydroxytetrahydro-2H-pyran-2-carboxylate trisodium [Example 40]”, the IC50 (NCI-N87; Adding βGU) is reported as 30 nM, the IC50 (NCI-N87; No βGU) is reported as 1570 nM and the “T/C (%)” value (human colon cancer SW620) is reported as 2.9%. For the same substance, the “Tumor inhibition rate (%)” value (human colon cancer SW620) was 97.2%, the IC50 (SW620; Adding βGU) was 6.9 nM and the IC50 (SW620; No βGU) was 244 nM. The IC50 (HCT116; Adding βGU (β-glucuronidase)) was 6.1 nM, the IC50 (HCT116; [5]) was 218 nM and the IC50 (NCI-H460; Adding βGU) was 15 nM. The IC50 (NCI-H460; No βGU) was 943 nM, the IC50 (LoVo; Adding βGU) was 23 nM and the IC50 (LoVo; No βGU) was 302 nM. For the same substance, the IC50 (BxPC-3; Adding βGU) was 41 nM, the IC50 (BxPC-3; No βGU) was 658 nM and the IC50 (MDA-MB-468; Adding βGU) was 6.9 nM. It also gave an IC50 (MDA-MB-468; No βGU) of 217 nM.
For “(2S,3S,4S,5R,6S)-6-(3-((1-(6-((4′-((E)-(8-amino-1-hydroxy-5,7-disulfonicnaphthalen-2-yl)diazenyl)-3,3′-dimethoxy-[1,1′-biphenyl]-4-yl)amino)-6-oxohexyl)-1H-1,2,3-triazol-4-yl)methoxy)-4-(((S)-4,11-diethyl-4-hydroxy-3,14-dioxy-3,4,12,14-tetrahydro-1H-pyrano[3′,4′:6,7]indolizino[1,7]quinolin-9-yl)oxy)methyl)phenoxy)-3,4,5-trihydroxytetrahydro-2H-pyran-2-carboxylate trisodium [Example 69]”, the IC50 (NCI-N87; Adding βGU) was 32 nM, the IC50 (NCI-N87; No βGU) was 350 nM and the “T/C (%)” value (human colon cancer SW620) was 1.1%. For the same substance, the “Tumor inhibition rate (%)” value (human colon cancer SW620) was 99.1%, the IC50 (SW620; Adding βGU) was 7.7 nM and the IC50 (SW620; No βGU) was 361 nM. The IC50 (HCT116; Adding βGU (β-glucuronidase)) was 8.2 nM, the IC50 (HCT116; [5]) was 181 nM and the IC50 (NCI-H460; Adding βGU) was 13 nM. It also gave an IC50 (NCI-H460; No βGU) of 566 nM, an IC50 (LoVo; Adding βGU) of 11 nM and an IC50 (LoVo; No βGU) of 592 nM. The IC50 (BxPC-3; Adding βGU) was 16 nM, the IC50 (BxPC-3; No βGU) was 720 nM and the IC50 (MDA-MB-468; Adding βGU) was 10 nM. The IC50 (MDA-MB-468; No βGU) was 88 nM.
“(2S,3S,4S,5R,6S)-6-(3-((1-(3-(2-((4′-(E)-(8-amino-1-hydroxy-5,7-disulfonicnaphthalen-2-yl)diazenyl)-3,3′-dimethyl-[1,1′-biphenyl]-4-yl)amino)-2-oxoethoxy)propyl)-1H-1,2,3-triazol-4-yl)methoxy)-4-((((S)-4,11-diethyl-4-hydroxy-3,14-dioxy-3,4,12,14-tetrahydro-1H-pyrano[3′,4′:6,7]indolazino[1,7]quinolin-9-yl)oxy)methyl)phenoxy)-3,4, 5-trihydroxytetrahydro-2H-pyran-2-carboxylate trisodium [Example 96]” was tested, and the IC50 (NCI-N87; Adding βGU) was 30 nM, the IC50 (NCI-N87; No βGU) was 964 nM and the “Relative volume RTV (X ± S.D.)” value [1] was 0.78 ± 0.03. For the same substance, the “T/C (%)” value [1] was 21.0%, the “Tumor inhibition rate (%)” value [1] was 84.4% and the “Tumor weight (g, X ± S.D.)” value [1] was 0.425 ± 0.091 g. The IC50 (MDA-MB-468; Adding βGU) was 7.5 nM and the IC50 (MDA-MB-468; No βGU) was 213 nM.
With “(2S,3S,4S,5R,6S)-6-(3-((1-(6-((4′-((E)-(8-amino-1-hydroxy-5,7-disulfonicnaphthalen-2-yl)diazenyl)-3,3′-dimethyl-[1,1′-biphenyl]-4-yl)amino)-6-oxohexyl)-1H-1,2,3-triazol-4-yl)methoxy)-4-(((S)-4-ethyl-4-hydroxy-3,14-dioxy-3,4,12,14-tetrahydro-1H-pyrano[3′,4′:6,7]indolazino[1,2-b]quinolin-9-yl)oxy)methyl)phenoxy)-3,4,5-trihydroxytetrahydro-2H-pyran-2-carboxylate trisodium [Example 24]” the IC50 (NCI-N87; Adding βGU) was 61 nM, the “inhibition rate at 2 μM” value (NCI-N87; No βGU, 2 μM) was 2 μM about 34.4% and the “Relative volume RTV (X ± S.D.)” value [2] was 1.04 ± 0.07. The “T/C (%)” value [2] was 25.5%, the “Tumor inhibition rate (%)” value [2] was 75.3% and the “Tumor weight (g, X ± S.D.)” value [2] was 0.742 ± 0.267 g. For the same substance, the IC50 (SW620; Adding βGU) was 6.5 nM, the IC50 (SW620; No βGU) was 915 nM and the IC50 (HCT116; Adding βGU (β-glucuronidase)) was 14 nM. For the same substance, the IC50 (HCT116; [5]) was 339 nM, the IC50 (NCI-H460; Adding βGU) was 39 nM and the IC50 (NCI-H460; No βGU) was 1720 nM. The “Relative volume RTV (X ± S.D.)” value [3] was 0.46 ± 0.12, the “T/C (%)” value [3] was 9.6% and the “Tumor inhibition rate (%)” value [3] was 92.0%. For the same substance, the “Tumor weight (g, X ± S.D.)” value [3] was 0.134 ± 0.080 g, the IC50 (LoVo; Adding βGU) was 18 nM and the IC50 (LoVo; No βGU) was 764 nM. It also gave an IC50 (BxPC-3; Adding βGU) of 19 nM, an IC50 (BxPC-3; No βGU) of 1270 nM and an IC50 (MDA-MB-468; Adding βGU) of 11 nM. The IC50 (MDA-MB-468; No βGU) was 171 nM.
In the case of “(2S,3S,4S,5R,6S)-6-(3-((1-(6-((4′-((E)-(8-amino-1-hydroxy-5,7-disulfonicnaphthalen-2-yl)diazenyl)-3,3′-dimethyl-[1,1′-biphenyl]-4-yl)amino)-6-oxohexyl)-1H-1,2,3-triazol-4-yl)methoxy)-4-((((S)-4,11-diethyl-4-hydroxy-3,14-dioxy-3,4,12,14-tetrahydro-1H-pyrano[3′,4′:6,7]indolazino[1,2-b]quinolin-9-yl)oxy)methyl)2-methylphenoxy)-3,4,5-trihydroxytetrahydro-2H-pyran-2-carboxylate trisodium [Example 14]”, the “Relative volume RTV (X ± S.D.)” value [4] is reported as 0.69 ± 0.45, the “T/C (%)” value [4] is reported as 10.2% and the “Tumor inhibition rate (%)” value [4] is reported as 91.3%. For the same substance, the “Tumor weight (g, X ± S.D.)” value [4] was 0.085 ± 0.075 g, the IC50 (NCI-N87; Adding βGU) was 26 nM and the IC50 (NCI-N87; No βGU) was 1480 nM. The IC50 (SW620; Adding βGU) was 6.3 nM, the IC50 (SW620; No βGU) was 151 nM and the IC50 (HCT116; Adding βGU (β-glucuronidase)) was 3.3 nM. The IC50 (HCT116; [5]) was 175 nM, the IC50 (NCI-H460; Adding βGU) was 8.7 nM and the IC50 (NCI-H460; No βGU) was 533 nM. For the same substance, the IC50 (LoVo; Adding βGU) was 10 nM, the IC50 (LoVo; No βGU) was 204 nM and the IC50 (BxPC-3; Adding βGU) was 16 nM. For the same substance, the IC50 (BxPC-3; No βGU) was 406 nM, the IC50 (MDA-MB-468; Adding βGU) was 4.4 nM and the IC50 (MDA-MB-468; No βGU) was 106 nM.
